Test results taken from patent EP1027361B1, “6,11-BRIDGED ERYTHROMYCIN DERIVATIVES” (Abbott Laboratories, priority 1997, dated 1999).

What was measured:
Assay in all cases: in vitro antibacterial activity, agar dilution MIC
Type in all cases: cell-based
[1] = system: Micrococcus luteus ATCC 9341; settings: organism code OO, BHI agar, 35-37 °C, 20 to 24 hours
Experimental: (§1) Erythromycin A was used for this purpose.
(§2) After incubation, each plate was visually inspected.

[2] = system: Haemophilis Influenzae DILL AMP R; settings: organism code WW, BHI agar, 35-37 °C, 20 to 24 hours
Experimental: as §1, §2

[3] = system: Staphylococcus aureus NCTC10649M; settings: organism code EE, BHI agar, 35-37 °C, 20 to 24 hours
Experimental: as §1, §2

[4] = system: Staphylococcus aureus CMX 642A; settings: organism code DD, BHI agar, 35-37 °C, 20 to 24 hours
Experimental: as §1, §2

[5] = system: Nocardia Asteroides ATCC9970; settings: organism code VV, BHI agar, 35-37 °C, 20 to 24 hours
Experimental: as §1, §2

[6] = system: Staphylococcus aureus CMX 553; settings: organism code FF, BHI agar, 35-37 °C, 20 to 24 hours
Experimental: as §1, §2

[7] = system: Streptococcus Pheumoniae 5649; settings: organism code ZZA, BHI agar, 35-37 °C, 20 to 24 hours
Experimental: as §1, §2

[8] = system: Micrococcus luteus ATCC 4698; settings: organism code PP, BHI agar, 35-37 °C, 20 to 24 hours
Experimental: as §1, §2

[9] = system: Escherichia coli SS; settings: organism code RR, BHI agar, 35-37 °C, 20 to 24 hours
Experimental: as §1, §2

[10] = system: Enterococcus faecium ATCC 8043; settings: organism code II, BHI agar, 35-37 °C, 20 to 24 hours
Experimental: as §1, §2

[11] = system: Streptococcus Pheumoniae GYR 1171; settings: organism code YY, BHI agar, 35-37 °C, 20 to 24 hours
Experimental: as §1, §2

[12] = system: Staphylococcus epidermidis 3519; settings: organism code HH, BHI agar, 35-37 °C, 20 to 24 hours
Experimental: as §1, §2

[13] = system: Escherichia coli JUHL; settings: organism code QQ, BHI agar, 35-37 °C, 20 to 24 hours
Experimental: as §1, §2

[14] = system: Staphylococcus aureus A5177; design: unit not given here; settings: organism code BB, BHI agar, 35-37 °C, 20 to 24 hours
Experimental: (§3) Representative compounds of the present invention were assayed in vitro for antibacterial activity as follows: Twelve petri dishes containing successive aqueous dilutions of the test compound mixed with 10 mL of sterilized Brain Heart Infusion (BHI) agar (Difco 0418-01-5) were prepared. Each plate was inoculated with 1:100 (or 1:10 for slow-growing strains, such as Micrococcus and Streptococcus) dilutions of up to 32 different microorganisms, using a Steers replicator block. […] In addition, a control plate, using BHI agar containing no test compound, was prepared and incubated at the beginning and end of each test
(§4) An additional plate containing a compound having known susceptibility patterns for the organisms being tested and belonging to the same antibiotic class as the test compound was also prepared and incubated as a further control, as well as to provide test-to-test comparability.
(§5) After incubation, each plate was visually inspected. The minimum inhibitory concentration (MIC) was defined as the lowest concentration of drug yielding no growth, a slight haze, or sparsely isolated colonies on the inoculum spot as compared to the growth control.

[15] = system: Mycobacterium smegmatis ATCC 114; design: unit not given here; settings: organism code UU, BHI agar, 35-37 °C, 20 to 24 hours
Experimental: as §3, §4, §5

[16] = system: Staphylococcus aureus A-5278; settings: organism code CC, BHI agar, 35-37 °C, 20 to 24 hours
Experimental: as §3, §4, §5

[17] = system: Streptococcus pyogenes PIU 2548; settings: organism code NN, BHI agar, 35-37 °C, 20 to 24 hours
Experimental: as §3, §4, §5

[18] = system: Streptococcus pyogenes 930; settings: organism code MM, BHI agar, 35-37 °C, 20 to 24 hours
Experimental: as §3, §4, §5

[19] = system: Streptococcus Pheumoniae 5979; settings: organism code ZZ, BHI agar, 35-37 °C, 20 to 24 hours
Experimental: as §3, §4, §5

[20] = system: Escherichia coli DC-2; settings: organism code SS, BHI agar, 35-37 °C, 20 to 24 hours
Experimental: as §3, §4, §5

[21] = system: Staphylococcus aureus 1775; settings: organism code GG, BHI agar, 35-37 °C, 20 to 24 hours
Experimental: as §3, §4, §5

[22] = system: Candida albicans CCH 442; settings: organism code TT, BHI agar, 35-37 °C, 20 to 24 hours
Experimental: as §3, §4, §5

[23] = system: Streptococcus Pheumoniae ATCC6303; design: unit not given here; settings: organism code XX, BHI agar, 35-37 °C, 20 to 24 hours
Experimental: as §1, §2

[24] = system: Streptococcus pyogenes EES61; design: unit not given here; settings: organism code LL, BHI agar, 35-37 °C, 20 to 24 hours
Experimental: as §1, §2

[25] = system: Streptococcus agalactiae CMX 508; design: unit not given here; settings: organism code KK, BHI agar, 35-37 °C, 20 to 24 hours
Experimental: as §1, §2

[26] = system: Streptococcus bovis A-5169; design: unit not given here; settings: organism code JJ, BHI agar, 35-37 °C, 20 to 24 hours
Experimental: as §1, §2

[27] = system: Staphylococcus aureus ATCC 6538P; design: unit not given here; settings: organism code AA, BHI agar, 35-37 °C, 20 to 24 hours
Experimental: as §1, §2

SMILES | minimum inhibitory concentration (MIC) [1] | minimum inhibitory concentration (MIC) [2] | minimum inhibitory concentration (MIC) [3] | minimum inhibitory concentration (MIC) [4] | minimum inhibitory concentration (MIC) [5] | minimum inhibitory concentration (MIC) [6] | minimum inhibitory concentration (MIC) [7] | minimum inhibitory concentration (MIC) [8] | minimum inhibitory concentration (MIC) [9] | minimum inhibitory concentration (MIC) [10] | minimum inhibitory concentration (MIC) [11] | minimum inhibitory concentration (MIC) [12] | minimum inhibitory concentration (MIC) [13] | minimum inhibitory concentration (MIC) [14] | minimum inhibitory concentration (MIC) [15] | minimum inhibitory concentration (MIC) [16] | minimum inhibitory concentration (MIC) [17] | minimum inhibitory concentration (MIC) [18] | minimum inhibitory concentration (MIC) [19] | minimum inhibitory concentration (MIC) [20] | also measured
CC[C@H]1OC(=O)[C@H](C)[C@@H](O[C@H]2C[C@@](C)(OC)[C@@H](O)[C@H](C)O2)[C@H](C)[C@@H](O[C@@H]2O[C@H](C)C[C@H](N(C)C)[C@H]2O)[C@@]2(C)C[C@@H](C)C(=O)[C@H](C)[C@H]3N(CCCCO2)C(=O)O[C@]13C [Example 15, Compound of Formula (I), R^p is H, m is 3, A is absent, B is absent, D is absent, E is absent, n is 1] | 0.05 | 32 | 0.78 | 0.39 | 0.1 | 0.39 | 16 | 0.39 | 3.1 | 0.1 | 0.03 | 0.39 | >100 | 3.1 | 1.56 | >100 | 6.2 | >100 | >128 | >100 | minimum inhibitory concentration (MIC) [21]: >100; minimum inhibitory concentration (MIC) [22]: >100; minimum inhibitory concentration (MIC) [23]: 0.03; minimum inhibitory concentration (MIC) [24]: 0.1; minimum inhibitory concentration (MIC) [25]: 0.05; minimum inhibitory concentration (MIC) [26]: 0.05; minimum inhibitory concentration (MIC) [27]: 0.39
CC[C@H]1OC(=O)[C@H](C)[C@@H](O[C@H]2C[C@@](C)(OC)[C@@H](OC(C)=O)[C@H](C)O2)[C@H](C)[C@@H](O[C@@H]2O[C@H](C)C[C@H](N(C)C)[C@H]2O)[C@@]2(C)C[C@@H](C)C(=O)[C@H](C)[C@H]3N(CCNCc4cccc(c4)C=CCO2)C(=O)O[C@]13C [Example 10, Compound of Formula (I), 2'-R^p is H, 4"-R^p is acetyl, m is 2, A is NH, B is-(CH2)q-, q is 1, D is 1,3-phenylene, E is-(CH2)r-CH=CH-, r is 0, n is 1] | 0.39 | 64 | 6.2 | 6.2 | 1.56 | 6.2 | 8 | 1.56 | 6.2 | 0.78 | 0.25 | 6.2 | >100 | 25 | 0.39 | 100 | 6.2 | 25 | 64 | >100 | minimum inhibitory concentration (MIC) [21]: 100; minimum inhibitory concentration (MIC) [22]: >100; minimum inhibitory concentration (MIC) [23]: 0.12; minimum inhibitory concentration (MIC) [24]: 0.78; minimum inhibitory concentration (MIC) [25]: 0.39; minimum inhibitory concentration (MIC) [26]: 0.39; minimum inhibitory concentration (MIC) [27]: 6.2
CC[C@H]1OC(=O)[C@H](C)C(=O)[C@H](C)[C@@H](O[C@@H]2O[C@H](C)C[C@H](N(C)C)[C@H]2O)[C@@]2(C)C[C@@H](C)C(=O)[C@H](C)[C@H]3N(CC=CCO2)C(=O)O[C@]13C [Example 16, Compound of Formula (II), R^p is H, m is 1, A is absent, B is absent, D is absent, E is-(CH2)r-CH=CH-, r is 0, n is 1] | 0.2 | 32 | 0.39 | 0.39 | 0.39 | 0.39 | 0.5 | 0.39 | 0.78 | 0.2 | 0.25 | 0.39 | >100 | 0.39 | 6.2 | >100 | 0.39 | >100 | >128 | >100 | minimum inhibitory concentration (MIC) [21]: >100; minimum inhibitory concentration (MIC) [22]: >100; minimum inhibitory concentration (MIC) [23]: 0.25; minimum inhibitory concentration (MIC) [24]: 0.2; minimum inhibitory concentration (MIC) [25]: 0.2; minimum inhibitory concentration (MIC) [26]: 0.2; minimum inhibitory concentration (MIC) [27]: 0.39
